Test results as given in US8946436B2, “Oxazolidinone compounds and their uses in preparation of antibiotics” (Sichuan Gooddoctor Pharmaceutical Group Co., Ltd., priority 2011, dated 2015).
Values after ≈ are worked out from the molar mass of the structure shown.

Legend:
[1] = test system: L-02; assay: Cytotoxicity experiment (MTT), L-02; assay type: cell-based; conditions: Homo sapiens, L02, 48 h, L-02 normal cells, read-out: Inhibition ratio
Procedure: (§1) (1) Inoculating cells: Experimental cells in the growth of logarithmic phase were collected and suspended. The cell concentration of the suspension was adjusted so that they could be inoculated into the wells of 96-well micro plate at a density between 10^3-10^4 cells per well (200 μl per well). (2) Culturing cells: The cells were cultured at normal conditions for 3 days and then exposed to 50 uM compounds for test. (3) Coloring reaction: At 24 h, 48 h and 72 h after the cells being exposed to the compounds for test, 200 μl culture medium containing 20 μl MTT solution (5 mg/ml) was added into each well, and the well was further incubated at 37° C. for 2 hours to terminate the incubation. After the incubation, the supernatants were removed from the wells. In the event there were suspended cells in the wells, centrifugation should be performed before removal of supernatant from the wells. After the removal, 150 μl DMSO was added to each well and mixed thoroughly by agitation for 10 mins to fully dissolve crystals. (4) Ascertainment of colorimetry: The absorbance value at 490 nm of each well was determined by Enzyme-linked immunosorbent Monitor. The growth curve of the experimental cells was plotted by taking time as x-coordinate and absorbance value as y-coordinate. In addition, an inhibition ratio could be calculated in accordance with the following formula: Inhibition ratio=(absorbance value of control group-absorbance value of administering group)/absorbance value of control group×100%.

[2] = test system: E. faecalis; assay: In vitro antibacterial activity (MIC), E. faecalis; assay type: cell-based; conditions: Enterococcus faecalis; E. faecalis (7 strains); read-out: MIC
Procedure: (§2) The test strain was inoculated into the liquid medium and cultured at 37° C. for 16-18 h. The culture liquid and MH medium were put into two blank wells of a 96-well plate, respectively. Then, the absorptions thereof were measured by a Microplate reader. The difference between the absorption values of the culture liquid and MH medium is the adsorption of the bacteria. The concentration of the culture liquid can be calculated according to the formula of 1OD=50 million CFU/mL. The culture liquid was diluted with the MH bouillon culture medium to 5000 CFU/mL for further use.
(§3) Compounds 12a, 13 and 14 were dissolved in DMSO to 1 mg/mL, and then filtered with a 0.22 μm filter to obtain the compound solutions. And then they were gradually diluted to a desired concentration (10× final concentration) with the liquid medium, so as to obtain a series of dilutions. The final concentration grade of the dilutions of each tested compound consists of 14 concentrations, which includes: 0.03125 μg/mL, […], 0.125 μg/mL, 0.25 μg/mL, […], 1 μg/mL, 2 μg/mL, 4 μg/mL, 8 μg/mL, 16 μg/mL, 32 μg/mL, 64 μg/mL, 128 μg/mL and 256 μg/mL.
(§4) 10 μL of each of the compound dilutions above was added into a well of a 96-well plate. 90 μL of the culture liquid (5000 CFU/mL) was added into each of the wells, respectively, mixed with the dilutions to render the tested compound concentration to the final concentration. The resulted mixture was incubated at 37° C. for 16-18 h, and then the OD630 thereof was measured. A culture liquid free of the tested compounds is used as a blank control, and three parallel tests with the same concentration of each compound were performed. The minimum inhibitory concentration (MIC) of each compound on the standard strain of Staphylococcus Aureus and other test strains was determined. Specifically, among the culture liquid contained in the wells of the micro-plate, the first three lowest concentrations under which growth of the test strains could be observed were chose for further evaluation of the MIC. A culture liquid free of tested compounds was used as a blank control. Each of the culture liquids was homogenized independently, and then was diluted with a sterile saline. Each of the diluted culture liquids was plated onto a MH bouillon plate and incubated at 37° C. for 20 h in incubator. After the incubation, the number of the colonies on each plate was counted. As compared with the blank control group, the lowest concentration of each of the test compound groups, at which 80% reduction in the colony number of the strains was achieved, was recorded as the MIC.

[3] = test system: S. pneumoniae; assay: In vitro antibacterial activity (MIC), S. pneumoniae; assay type: cell-based; conditions: Streptococcus pneumoniae; S. pneumoniae (10 strains); read-out: MIC
Procedure: as §2, §3, §4

[4] = test system: S. agalactiae; assay: In vitro antibacterial activity (MIC), S. agalactiae; assay type: cell-based; conditions: Streptococcus agalactiae; S. agalactiae (5 strains); read-out: MIC
Procedure: as §2, §3, §4

[5] = test system: HEK-293; assay: Cytotoxicity experiment (MTT), HEK-293; assay type: cell-based; conditions: Homo sapiens, HEK293, 48 h, HEK-293 normal cells, read-out: Inhibition ratio
Procedure: as §1

[6] = test system: S. aureus; assay: In vitro antibacterial activity (MIC), S. aureus; assay type: cell-based, Staphylococcus Aureus; conditions: Staphylococcus aureus; S. aureus (12 strains); read-out: MIC
Procedure: Strains: strain ATCC25923 is available from the American Type Culture Collection, and is used as a standard strain of Staphylococcus Aureus;
Liquid medium: MH bouillon culture medium, a product of BD Company, United States of American;
Tested Compounds: compounds 12a, 13 and 14 prepared according to the methods above, and Linezolid purchased from Pfizer.
as §2, §3, §4

Row | melting point | MIC [2] | MIC [3] | MIC [4] | MIC [6] | Compound | cytotoxicity at 50 µM [1] | cytotoxicity at 50 µM [5]
1 | 90.5 to 92.3 °C | 4 to 32 µg/mL (≈ 8.43 to 67.5 µM) | 2 to 32 µg/mL (≈ 4.22 to 67.5 µM) | 4 to 32 µg/mL (≈ 8.43 to 67.5 µM) | 4 to 32 µg/mL (≈ 8.43 to 67.5 µM) | CC(=O)NC[C@H]1CN(c2ccc(-n3nccc3-c3cccc(Br)n3)c(F)c2)C(=O)O1 [Compound 14b, (S)-N-((3-(3-fluoro-4-(5-(6-bromopyridin-2-yl)-1H-pyrazol-1-yl)phenyl)-2-oxooxazolidin-5-yl)methyl) acetamide] | 21% | 19.5%
2 | 89.5 to 91.9 °C | 2 to 32 µg/mL (≈ 4.9 to 78.3 µM) | 2 to 16 µg/mL (≈ 4.9 to 39.2 µM) | 2 to 32 µg/mL (≈ 4.9 to 78.3 µM) | 4 to 32 µg/mL (≈ 9.79 to 78.3 µM) | CC(=O)NC[C@H]1CN(c2ccc(-n3nccc3-c3ccc(C)cc3)c(F)c2)C(=O)O1 [Compound 14c, (S)-N-((3-(3-fluoro-4-(5-(p-tolyl)-1H-pyrazol-1-yl)phenyl)-2-oxooxazolidin-5-yl)methyl)acetamide] | 39% | 40%
